In the NIST ThermoML archive (doi:10.1016/j.jct.2016.04.003):

Test: xn = mol fraction of the nth substance listed
Details: for surface tension liquid-gas: Drop volume; for viscosity / speed of sound / mass density: 99 kPa, Liquid; for viscosity: Capillary tube (Ostwald / Ubbelohde) method; for speed of sound: Frequency=3 MHz, Sing-around technique in a fixed-path interferometer; for mass density: Vibrating tube method

CCC[n+]1ccccc1.F[B-](F)(F)F [1-propylpyridinium tetrafluoroborate] + O
Details | mass density [kg/m3] | speed of sound [m/s] | surface tension liquid-gas [mN/m] | viscosity [mPa·s]
293.15 K, x1 = 0.0185 | 1034.4 | 1537.2 | – | –
293.15 K, x1 = 0.028 | – | – | 58.5 | –
293.15 K, x1 = 0.0287 | 1050.5 | 1551 | – | –
293.15 K, x1 = 0.0466 | 1074 | 1568.7 | – | –
293.15 K, x1 = 0.0492 | – | – | – | 1.359
293.15 K, x1 = 0.0551 | – | – | 56.1 | –
293.15 K, x1 = 0.0766 | 1103.9 | 1590.8 | – | –
293.15 K, x1 = 0.0952 | – | – | – | 1.827
293.15 K, x1 = 0.0964 | 1119 | 1602.6 | – | –
293.15 K, x1 = 0.1008 | – | – | 54 | –
293.15 K, x1 = 0.1522 | – | – | 52.7 | –
293.15 K, x1 = 0.1948 | – | – | – | 2.933
293.15 K, x1 = 0.1965 | – | – | 52 | –
293.15 K, x1 = 0.2011 | 1169.1 | 1640.9 | – | –
293.15 K, x1 = 0.2588 | – | – | – | 4.438
293.15 K, x1 = 0.2858 | 1191.6 | 1651.5 | – | –
293.15 K, x1 = 0.2947 | – | – | 51.5 | –
293.15 K, x1 = 0.3451 | – | – | 51.4 | –
293.15 K, x1 = 0.3891 | – | – | – | 8.303
293.15 K, x1 = 0.3968 | – | – | 51.2 | –
293.15 K, x1 = 0.3993 | 1211.3 | 1654.2 | – | –
293.15 K, x1 = 0.4779 | – | – | 51.1 | –
293.15 K, x1 = 0.4894 | – | – | – | 13.36
293.15 K, x1 = 0.4979 | 1223.2 | 1651.5 | – | –
293.15 K, x1 = 0.5772 | 1230.6 | 1648.1 | – | –
293.15 K, x1 = 0.5827 | – | – | 51.1 | –
293.15 K, x1 = 0.5942 | – | – | – | 19.97
293.15 K, x1 = 0.6015 | 1232.5 | 1647.3 | – | –
293.15 K, x1 = 0.6695 | 1237.6 | 1645.8 | – | –
293.15 K, x1 = 0.6846 | – | – | 51 | –
293.15 K, x1 = 0.6952 | – | – | – | 33.13
293.15 K, x1 = 0.7309 | 1241.4 | 1645.4 | – | –
293.15 K, x1 = 0.7771 | 1244.2 | 1645.6 | – | –
293.15 K, x1 = 0.7861 | – | – | 51 | –
293.15 K, x1 = 0.7903 | – | – | – | 53.92
293.15 K, x1 = 0.8395 | 1247.6 | 1647.1 | – | –
293.15 K, x1 = 0.8862 | – | – | 51.1 | –
293.15 K, x1 = 0.8982 | – | – | – | 97.09
293.15 K, x1 = 0.9054 | 1251.2 | 1649.5 | – | –
293.15 K, x1 = 0.9425 | – | – | 51.2 | –
293.15 K, x1 = 0.943 | – | – | – | 124.2
293.15 K, x1 = 0.9633 | 1254.5 | 1652.1 | – | –
293.15 K, x1 = 1 | 1256.7 | 1653.9 | 51.3 | 160
303.15 K, x1 = 0.0185 | 1030.5 | 1550.2 | – | –
303.15 K, x1 = 0.028 | – | – | 57.2 | –
303.15 K, x1 = 0.0287 | 1046.1 | 1564 | – | –
303.15 K, x1 = 0.0466 | 1068.7 | 1581.1 | – | –
303.15 K, x1 = 0.0492 | – | – | – | 1.092
303.15 K, x1 = 0.0551 | – | – | 54.8 | –
303.15 K, x1 = 0.0766 | 1097.8 | 1599.5 | – | –
303.15 K, x1 = 0.0952 | – | – | – | 1.278
303.15 K, x1 = 0.0964 | 1112.5 | 1607.8 | – | –
303.15 K, x1 = 0.1008 | – | – | 52.8 | –
303.15 K, x1 = 0.1522 | – | – | 51.6 | –
303.15 K, x1 = 0.1948 | – | – | – | 2.334
303.15 K, x1 = 0.1965 | – | – | 50.9 | –
303.15 K, x1 = 0.2011 | 1161.7 | 1627.8 | – | –
303.15 K, x1 = 0.2588 | – | – | – | 3.141
303.15 K, x1 = 0.2858 | 1184.2 | 1630.3 | – | –
303.15 K, x1 = 0.2947 | – | – | 50.6 | –
303.15 K, x1 = 0.3451 | – | – | 50.5 | –
303.15 K, x1 = 0.3891 | – | – | – | 6.162
303.15 K, x1 = 0.3968 | – | – | 50.3 | –
303.15 K, x1 = 0.3993 | 1203.8 | 1629.5 | – | –
303.15 K, x1 = 0.4779 | – | – | 50.2 | –
303.15 K, x1 = 0.4894 | – | – | – | 9.757
303.15 K, x1 = 0.4979 | 1215.7 | 1627.3 | – | –
303.15 K, x1 = 0.5772 | 1223.1 | 1625.1 | – | –
303.15 K, x1 = 0.5827 | – | – | 50.3 | –
303.15 K, x1 = 0.5942 | – | – | – | 14.93
303.15 K, x1 = 0.6015 | 1225 | 1624.6 | – | –
303.15 K, x1 = 0.6695 | 1230 | 1623.3 | – | –
303.15 K, x1 = 0.6846 | – | – | 50.3 | –
303.15 K, x1 = 0.6952 | – | – | – | 22.56
303.15 K, x1 = 0.7309 | 1233.9 | 1622.6 | – | –
303.15 K, x1 = 0.7771 | 1236.7 | 1622.4 | – | –
303.15 K, x1 = 0.7861 | – | – | 50.3 | –
303.15 K, x1 = 0.7903 | – | – | – | 34.94
303.15 K, x1 = 0.8395 | 1240.2 | 1623 | – | –
303.15 K, x1 = 0.8862 | – | – | 50.3 | –
303.15 K, x1 = 0.8982 | – | – | – | 58.66
303.15 K, x1 = 0.9054 | 1243.9 | 1624.6 | – | –
303.15 K, x1 = 0.9425 | – | – | 50.4 | –
303.15 K, x1 = 0.943 | – | – | – | 70.68
303.15 K, x1 = 0.9633 | 1247.3 | 1627.3 | – | –
303.15 K, x1 = 1 | 1249.5 | 1629.8 | 50.5 | 90.75
